Our source for the IC50 values is patent EP2808342B1, “Medium for in-vitro toxicity testing and in-vitro toxicity test method using the same” (priority 2013, dated 2014).

In assay [1] the test system is N2a cells. The experiment in a line: Toxicity test (CCK-8 cell proliferation assay) on 3D cell clusters grown on REP-coated plates. Conditions: Cell Cluster of Ex. 2 (A), REP-plate. The class given is cell-based. The protocol:
REP was dissolved at a concentration of 10 µM in phosphate buffered saline (PBS), and the 10 µM REP solution was aliquoted in an amount of 50 µl per well into 96-well polystyrene plates and incubated for 1 hr at 37°C. The supernatant was removed from each well to leave REP to adhere to the plates.
(§1) N2a cells ([…], purchased from the ATCC, USA) were seeded at a density of 5x10^5 cells/well into the culture plates coated with REP prepared in Example 1 (hereinafter referred to as "REP-plate"). The cell culture medium was Eagle's Minimum Essential Medium (EMEM) supplemented with 2 mM glutamine, 1 mM sodium pyruvate, 1.5 g/l sodium bicarbonate, 100 units/ml penicillin and 100 µg/ml streptomycin. The REP-plates where N2a cells were seeded were incubated for 3 days at 37°C in a 5% CO2 atmosphere with humidity of 95% to afford the formation of 3D cell clusters.
(§2) To the cell clusters obtained in Example 2 or the cells obtained in Comparative Example 1 was added a solution of PFOA (perfluorooctanoic acid, Mw 414.1 g/mol, Sigma-Aldrich, 171468-5G, 96%) with a concentration of 5 µM, 20 µM, 50 µM, 100 µM, 200 µM, 300 µM, 400 µM, 500 µM, 600 µM, 700 µM, 800 µM, 900 µM, 1,000 µM or 2,000 µM. After 3, 24 or 48 hrs of incubation, the cells were assayed for proliferation using a cell counting kit-8 (CCK-8, Dojindo, Japan).
(§3) The PFOA solution was made by dissolving PFOA in dimethyl sulfoxide (DMSO, Sigma-Aldrich, USA) at a final concentration of 5 µM, 20 µM, 50 µM, 100 µM, 200 µM, 300 µM, 400 µM, 500 µM, 600 µM, 700 µM, 800 µM, 900 µM, 1,000 µM or 2,000 µM.
(§4) For the cell proliferation assay, absorbance (OD) at 450 nm was measured on an amicroplate reader (Multiskan, Thermo USA). From the measurements, inhibitory concentration (IC50) values were calculated using TOXCALC 5.0 (Tidepool Scientific Software, USA).
(§5) A solution of PFOS (perfluorooctane sulfonates; Mw 538.2, Sigma-Aldrich, 77282-10G, ≥98.0 (T)) with a concentration of 5 µM, 20 µM, 50 µM, 100 µM, 200 µM, 300 µM, 400 µM, 500 µM, 600 µM, 700 µM, 800 µM, 900 µM, 1,000 µM or 2, 000 µM was added to the cell clusters obtained in Example 2 and to the cells obtained in Comparative Example 1. After 3, 24 or 48 hrs of incubation, the cells were assayed for proliferation using a cell counting kit-8 (CCK-8, Dojindo, Japan).
(§6) The PFOS solution was made by dissolving PFOS in dimethyl sulfoxide (DMSO, Sigma-Aldrich, USA) at a final concentration of 5 µM, 20 µM, 50 µM, 100 µM, 200 µM, 300 µM, 400 µM, 500 µM, 600 µM, 700 µM, 800 µM, 900 µM, 1,000 µM or 2,000 µM.

Assay [2] deals with N2a cells. The experiment in a line: Toxicity test (CCK-8 cell proliferation assay) on cells cultured on plates not coated with REP. The class given is cell-based. The note with it: Cultured Cell of C. Ex. 1 (B). The procedure: as §1
Cells were cultured in the same manner as in Example 2, with the exception that the plates were not coated with REP.
as §2, §3, §4, §5, §6
Background: Tetrazolium dyes change colour on reduction, which living cells bring about.

[3] abbreviates: Mus musculus, N2a, 3 hrs incubation.
Setting [4] is: Mus musculus, N2a, 24 hrs incubation.
The mark [5] stands for this setting: Mus musculus, N2a, 48 hrs incubation.

Broadly, the IC50 is the concentration needed to halve the response being measured. The low end stands for greater potency in that assay, the high end for weaker potency in that assay. As to `O=C(O)C(F)(F)C(F)(F)C(F)(F)C(F)(F)C(F)(F)C(F)(F)C(F)(F)F` [PFOA, perfluorooctanoic acid], the IC50 in assay [1] (setting [3]) amounted to 632 µM; in assay [1] (setting [4]), 495 µM; in assay [1] (setting [5]) it was 423 µM; in assay [2] (setting [3]) it was 511 µM; in assay [2] (setting [4]), 389 µM; in assay [2] (setting [5]), 310 µM.

Take `O=S(=O)(O)C(F)(F)C(F)(F)C(F)(F)C(F)(F)C(F)(F)C(F)(F)C(F)(F)C(F)(F)F` [PFOS, perfluorooctane sulfonates]: the half-maximal inhibitory concentration (IC50) in assay [1] (3 hrs incubation) was found to be 471 µM; in assay [1] (24 hrs incubation) it was 355 µM; in assay [1] (48 hrs incubation), 300 µM; in assay [2] (3 hrs incubation), 196 µM; in assay [2] (24 hrs incubation), 219 µM; in assay [2] (48 hrs incubation) it was 220 µM.
